PubChem BioAssay (NCI)
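All cell lines were grown in 96-well plates and treated with compound for 48 hours. TGI is the concentration that stops growth completely.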

Tests used:
Assay in all cases: NCI tumour cell line growth inhibition, 48 h
K-562 leukemia = system: K-562 leukemia
TK-10 renal = system: TK-10 renal
A498 renal = system: A498 renal
NCI/ADR-RES ovarian = system: NCI/ADR-RES ovarian
RXF 393 renal = system: RXF 393 renal
SK-MEL-2 melanoma = system: SK-MEL-2 melanoma
EKVX NSCLC = system: EKVX NSCLC
COLO 205 colon = system: COLO 205 colon
HS 578T breast = system: HS 578T breast
MALME-3M melanoma = system: MALME-3M melanoma
PC-3 prostate = system: PC-3 prostate
NCI-H23 lung = system: NCI-H23 lung
BT-549 breast = system: BT-549 breast
ACHN renal = system: ACHN renal
MDA-N = system: MDA-N
HCC-2998 colon = system: HCC-2998 colon
SNB-75 CNS = system: SNB-75 CNS
HOP-92 NSCLC = system: HOP-92 NSCLC
NCI-H460 lung = system: NCI-H460 lung
KM12 colon = system: KM12 colon
SF-268 CNS = system: SF-268 CNS
HCT-116 colon = system: HCT-116 colon
HCT-15 colon = system: HCT-15 colon
UACC-257 melanoma = system: UACC-257 melanoma
UO-31 renal = system: UO-31 renal
OVCAR-5 ovarian = system: OVCAR-5 ovarian
U251 CNS = system: U251 CNS
MDA-MB-231 breast = system: MDA-MB-231 breast
SW-620 colon = system: SW-620 colon
A549 NSCLC = system: A549 NSCLC
OVCAR-4 ovarian = system: OVCAR-4 ovarian
SF-295 CNS = system: SF-295 CNS
OVCAR-3 ovarian = system: OVCAR-3 ovarian
SN12C renal = system: SN12C renal
LOX IMVI melanoma = system: LOX IMVI melanoma
CAKI-1 renal = system: CAKI-1 renal
SNB-19 CNS = system: SNB-19 CNS
SK-MEL-28 melanoma = system: SK-MEL-28 melanoma
MCF7 breast = system: MCF7 breast
OVCAR-8 ovarian = system: OVCAR-8 ovarian
SF-539 CNS = system: SF-539 CNS
SK-MEL-5 melanoma = system: SK-MEL-5 melanoma
HT29 colon = system: HT29 colon
M14 melanoma = system: M14 melanoma
DU-145 prostate = system: DU-145 prostate
UACC-62 melanoma = system: UACC-62 melanoma
RPMI-8226 leukemia = system: RPMI-8226 leukemia
786-0 renal = system: 786-0 renal
HOP-62 NSCLC = system: HOP-62 NSCLC
SK-OV-3 ovarian = system: SK-OV-3 ovarian
NCI-H522 lung = system: NCI-H522 lung
T-47D breast = system: T-47D breast
IGROV1 ovarian = system: IGROV1 ovarian
MOLT-4 leukemia = system: MOLT-4 leukemia
SR leukemia = system: SR leukemia
MDA-MB-435 = system: MDA-MB-435

Q: What does the source list for `N=c1ncn(C/C=C/c2ccccc2)c2nc[nH]c12`?
A: TGI (K-562 leukemia): > 100 µM; TGI (TK-10 renal): > 100 µM; TGI (A498 renal): > 100 µM; TGI (NCI/ADR-RES ovarian): > 100 µM; TGI (RXF 393 renal): > 100 µM; TGI (SK-MEL-2 melanoma): > 100 µM; TGI (EKVX NSCLC): > 100 µM; TGI (COLO 205 colon): > 100 µM; TGI (HS 578T breast): > 100 µM; TGI (MALME-3M melanoma): > 100 µM; TGI (PC-3 prostate): > 100 µM; TGI (NCI-H23 lung): > 100 µM; TGI (BT-549 breast): > 100 µM; TGI (ACHN renal): > 100 µM; TGI (MDA-N): > 100 µM; TGI (HCC-2998 colon): > 100 µM; TGI (SNB-75 CNS): > 100 µM; TGI (HOP-92 NSCLC): > 100 µM; TGI (NCI-H460 lung): > 100 µM; TGI (KM12 colon): > 100 µM; TGI (SF-268 CNS): > 100 µM; TGI (HCT-116 colon): > 100 µM; TGI (HCT-15 colon): > 100 µM; TGI (UACC-257 melanoma): > 100 µM; TGI (UO-31 renal): > 100 µM; TGI (OVCAR-5 ovarian): > 100 µM; TGI (U251 CNS): > 100 µM; TGI (MDA-MB-231 breast): > 100 µM; TGI (SW-620 colon): > 100 µM; TGI (A549 NSCLC): > 100 µM; TGI (OVCAR-4 ovarian): > 100 µM; TGI (SF-295 CNS): > 100 µM; TGI (OVCAR-3 ovarian): > 100 µM; TGI (SN12C renal): > 100 µM; TGI (LOX IMVI melanoma): > 100 µM; TGI (CAKI-1 renal): > 100 µM; TGI (SNB-19 CNS): > 100 µM; TGI (SK-MEL-28 melanoma): > 100 µM; TGI (MCF7 breast): > 100 µM; TGI (OVCAR-8 ovarian): > 100 µM; TGI (SF-539 CNS): > 100 µM; TGI (SK-MEL-5 melanoma): > 100 µM; TGI (HT29 colon): > 100 µM; TGI (M14 melanoma): > 100 µM; TGI (DU-145 prostate): > 100 µM; TGI (UACC-62 melanoma): > 100 µM; TGI (RPMI-8226 leukemia): > 100 µM; TGI (786-0 renal): > 100 µM; TGI (HOP-62 NSCLC): > 100 µM; TGI (SK-OV-3 ovarian): > 100 µM; TGI (NCI-H522 lung): > 100 µM; TGI (T-47D breast): > 100 µM; TGI (IGROV1 ovarian): > 100 µM; TGI (MOLT-4 leukemia): 36.5 µM; TGI (SR leukemia): > 100 µM; TGI (MDA-MB-435): > 100 µM
